Results reported in patent US8575160B2, “Imidazole derivatives as aldosterone synthase inhibitors” (Novartis AG, priority 2009, dated 2013).

Tests used:
[1] = target: T1, CYP11B1 (Homo sapiens, UniProt P15538); experiment: cellular cortisol production in NCI-H295R cells (CYP11B1 inhibition); type: cell-based
T1 construct: the NCI-H295R cells have CYP11 B1 (steroid 11 β-hydroxylase); host or cells: NCI-H295R
T1 sequence (P15538 25-503): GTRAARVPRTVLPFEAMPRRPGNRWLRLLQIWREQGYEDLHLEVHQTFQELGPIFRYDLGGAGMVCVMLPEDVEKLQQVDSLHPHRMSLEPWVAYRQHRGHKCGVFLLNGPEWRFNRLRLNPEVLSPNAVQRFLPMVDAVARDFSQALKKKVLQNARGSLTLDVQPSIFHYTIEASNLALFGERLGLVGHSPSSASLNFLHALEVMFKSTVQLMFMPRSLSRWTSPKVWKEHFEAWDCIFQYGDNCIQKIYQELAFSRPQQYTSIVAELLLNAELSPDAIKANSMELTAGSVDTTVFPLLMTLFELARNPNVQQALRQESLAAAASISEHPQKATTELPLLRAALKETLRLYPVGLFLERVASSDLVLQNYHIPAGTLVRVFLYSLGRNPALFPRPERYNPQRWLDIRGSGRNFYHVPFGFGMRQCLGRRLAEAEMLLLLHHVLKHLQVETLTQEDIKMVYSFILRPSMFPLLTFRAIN
From the text: The in vitro inhibitory activities for CYP11B1 can be determined by the following assay.
The cell line NCI-H295R was originally isolated from an adrenocortical carcinoma and has been characterized in the literature through the stimulable secretion of steroid hormones and the presence of the enymes essential for steroidogenesis. Thus, the NCI-H295R cells have CYP11 B1 (steroid 11 β-hydroxylase). The cells show the physiological property of zonally undifferentiated human foetal adrenocortical cells which, however, have the capacity to produce the steroid hormones which are formed in the three, phenotypically distinguishable zones in the adult adrenal cortex.
The NCI-H295R cells (American Type Culture Collection, ATCC, Rockville, Md., USA) are grown in Dulbeoco's Modified Eagle'Ham F-12 Medium (DME/F12), which has been supplemented with Ulroser SF Serum (Soprachem, Cergy-Saint-Christophe, France), insulin, transferrin, selenite (I-T-S, Becton Dickinson Biosiences, Franklin lakes, NJ, USA) and antibiotics in 75 cm^2 cell culture vessels at 37° C. and in a 95% air-5% carbon dioxide atmosphere. The cells are subsequently transferred for colony formation into a 24-well incubation vessel. They are cultivated there in DME/F12 medium, which is now supplemented with 0.1% bovine serum instead of Ultroser SF for 24 hours. The experiment is initiated by cultivating the cells in DME/F12 medium which is supplemented with 0.1% bovine serum albumin and test compound, in the presence or absence of cell stimulants, for 72 hours. The test substance is added in a concentration range from 0.2 nanomolar to […]. Cell stimulants which can be used are angiotensin 11 (1 D or 100 nanomolar), potassium ions (16 millimolar), forskolin (10 micromolar) or a combination of two stimulants.
The excretion of aldosterone, cortisol, corticosterone and estradiol/estrone into the culture medium can be detected and quantified by commercially available, specific monoclonal antibodies in radioimmunoassays in accordance with the manufacturer's instructions.
(§1) Inhibition of the release of certain steroids can be used as a measure of the respective enzyme inhibition by the added test compounds. The dose-dependent inhibition of enzymic activity by a compound is calculated by means of an inhibition plot which is characterized by an IC50.
(§2) The IC50 values for active test compounds are ascertained by a simple linear regression analysis in order to construct inhibition plots without data weighting. The inhibition plot is calculated by fitting a 4-parameter logistic function to the raw data points using the least squares method. The equation of the 4-parameter logistic function is calculated as follows: Y=(d−a)/((1+(x/c)b))+a, where: a=minimum data level, b=gradient, I […], d=maximum data level, x=inhibitor concentration.

[2] = target: T2, aldosterone synthase (CYP11B2) (Homo sapiens, UniProt P19099); experiment: cellular aldosterone production in NCI-H295R cells (aldosterone synthase inhibition); type: cell-based
T2 construct: host or cells: NCI-H295R
T2 sequence (P19099 25-503): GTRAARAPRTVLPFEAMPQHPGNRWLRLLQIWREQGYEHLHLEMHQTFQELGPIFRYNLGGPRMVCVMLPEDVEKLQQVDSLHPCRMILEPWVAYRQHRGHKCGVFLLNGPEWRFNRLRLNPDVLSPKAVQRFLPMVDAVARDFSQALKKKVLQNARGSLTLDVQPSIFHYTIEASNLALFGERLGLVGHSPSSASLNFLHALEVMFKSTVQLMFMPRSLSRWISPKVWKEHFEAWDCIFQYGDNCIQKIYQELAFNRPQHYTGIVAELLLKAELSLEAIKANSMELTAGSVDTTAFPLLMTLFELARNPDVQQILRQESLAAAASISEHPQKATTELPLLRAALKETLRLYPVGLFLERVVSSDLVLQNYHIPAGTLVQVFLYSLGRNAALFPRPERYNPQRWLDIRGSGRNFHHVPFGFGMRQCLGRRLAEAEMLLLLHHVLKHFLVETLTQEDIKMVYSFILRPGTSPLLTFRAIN
From the text: In particular, the aldosterone synthase inhibitory activities in vitro can be determined by the following assay.
Human adrenocortical carcinoma NCI-H295R cell line was obtained from American Type Culture Collection (Manassas, Va.). Insulin/transferrin/selenium (ITS)-A supplement (100×), DMEM/F-12, antibiotic/antimycotic (100×), and fetal bovine serum (FBS) were purchased from Invitrogen (Carlsbad, Calif.). Anti-mouse PVT scintillation proximity assay (SPA) beads and NBS 96-well plates were obtained from GE Health Sciences (Piscataway, N.J.) and Corning (Acton, Mass.), respectively. Solid black 96-well flat bottom plates were purchased from Costar (Corning, N.Y.). Aldosterone and angiotensin (Ang II) were purchased from Sigma (St. Louis, Mo.). D[1,2,6,7-^3H(N)]aldosterone was acquired from PerkinElmer (Boston, Mass.). Nu-serum was a product of BD Biosciences (Franklin Lakes, N.J.).
For in vitro measurement of aldosterone activity, human adrenocortical carcinoma NCI-H295R cells are seeded in NBS 96-well plates at a density of 25,000 cells/well in 100 μl of a growth medium containing DMEM/F12 supplemented with 10% FCS, 2.5% Nu-serum, 1 μg ITS/ml, and 1× antibiotic/antimycotic. The medium is changed after culturing for 3 days at 37° C. under an atmosphere of 5% CO2/95% air. On the following day, cells are rinsed with 100 μl of phosphate-buffered saline (PBS) and incubated with 100 μl of treatment medium containing 1 μM Ang II and a compound at different concentrations in quadruplicate wells at 37° C. for 24 hr. At the end of incubation, 50 μl of medium is withdrawn from each well for measurement of aldosterone production by an SPA using mouse anti-aldosterone monoclonal antibodies.
Measurement of aldosterone activity can also be performed using a 96-well plate format. Each test sample is incubated with 0.02 μCi of D[1,2,6,7-^3H(N)]aldosterone and 0.3 μg of anti-aldosterone antibody in PBS containing 0.1% Triton X-100, 0.1% bovine serum albumin, and 12% glycerol in a total volume of 200 μl at room temperature for 1 hr. Anti-mouse PVT SPA beads (50 μl) are then added to each well and incubated overnight at room temperature prior to counting in a Microbeta plate counter. The amount of aldosterone in each sample is calculated by comparing with a standard curve generated using known quantities of the hormone.
as §1, §2

SMILES | IC50 [1] | IC50 [2]
C=C[C@@]1(O)C[C@H](c2ccc(C#N)cc2F)n2cncc21 [Example 1-1, 3-fluoro-4-((5R,7S)-7-hydroxy-7-vinyl-6,7-dihydro-5H-pyrrolo[1,2-c]imidazol-5-yl)benzonitrile] | 472 nM | 11 nM
Cc1ccc([C@@]2(O)C[C@H](c3ccc(C#N)cc3F)n3cncc32)cc1C [Example 1-4, 4-((5R,7S)-7-(3,4-dimethylphenyl)-7-hydroxy-6,7-dihydro-5H-pyrrolo[1,2-c]imidazol-5-yl)-3-fluorobenzonitrile] | 480 nM | 5 nM
N#Cc1ccc([C@H]2C[C@](O)(c3ccc4ccccc4c3)c3cncn32)c(F)c1 [Example 1-16] | 143 nM | 2 nM
N#Cc1ccc([C@H]2C[C@@](O)(c3ccc4ccccc4c3)c3cncn32)c(F)c1 [Example 1-17] | 14 nM | 1 nM
N#Cc1ccc([C@H]2C[C@](O)(c3cccc(-c4ccc(F)cc4)c3)c3cncn32)c(F)c1 [Example 1-30] | 522 nM | 25 nM
CCc1ccc([C@@]2(O)C[C@H](c3ccc(C#N)cc3F)n3cncc32)cc1 [Example 1-32] | 645 nM | 6 nM
N#Cc1ccc([C@H]2CC[C@](O)(c3ccc(-c4ccccc4)cc3)c3cncn32)cc1 [Example 1-41] | 135 nM | 72 nM
Cn1c([C@@]2(O)C[C@H](c3ccc(C#N)cc3F)n3cncc32)cc2ccccc21 [Example 1-50] | 1800 nM | 7 nM
N#Cc1ccc([C@H]2C[C@](O)(C#CC3CC3)c3cncn32)c(F)c1 [Example 1-52, 4-((5R,7S)-7-(cyclopropylethynyl)-7-hydroxy-6,7-dihydro-6H-pyrrolo[1,2-c]imidazol-5-yl)-3-fluorobenzonitrile] | 273 nM | 142 nM
COc1cc(-c2cccc([C@@]3(O)C[C@H](c4ccc(C#N)cc4F)n4cncc43)c2)ccn1 [Example 2-10] | 338 nM | 6 nM

The remaining compounds from weak to strong by IC50 [1], led by results:

IC50 [1] | IC50 [2] | SMILES
10200 nM | 64 nM | Cc1cc(-c2ccc([C@@]3(O)C[C@H](c4ccc(C#N)cc4F)n4cncc43)cc2)ccn1 [Example 3-14]
8780 nM | 72 nM | N#Cc1ccc([C@H]2C[C@](O)(CC(=O)Nc3cccc(OC(F)(F)F)c3)c3cncn32)c(F)c1 [Example 4-15]
220 nM | 42 nM | CC1(C)[C@H](c2ccc(C#N)cc2F)n2cncc2[C@@]1(O)c1ccc(F)cc1 [Example 1-53, 3-fluoro-4-((5R,7R)-7-(4-fluorophenyl)-7-hydroxy-6,6-dimethyl-6,7-dihydro-5H-pyrrolo[1,2-c]imidazol-5-yl)benzonitrile]
103 nM | 34 nM | N#Cc1ccc([C@H]2C[C@](O)(c3ccc4c(c3)OCO4)c3cncn32)c(F)c1 [Example 1-13]
84 nM | 27 nM | N#Cc1ccc([C@H]2C[C@](O)(c3cccc(C4CC4)c3)c3cncn32)c(F)c1 [Example 1-2, 4-((5R,7S)-7-(3-cyclopropylphenyl)-7-hydroxy-6,7-dihydro-5H-pyrrolo[1,2-c]imidazol-5-yl)-3-fluorobenzonitrile]
6 nM | 2 nM | N#Cc1ccc([C@H]2C[C@](O)(CCc3ccccc3)c3cncn32)c(F)c1 [Example 1-12]
